According to the supplement of paper PMC10307832:

Assays:
Assay in all cases: relative viability (nuclei count vs DMSO), 5 days (fraction); higher = more cells survive
MK-8033 + Bortezomib = compound: Cn1cc(-c2cnc3ccc4ccc(CS(=O)(=O)NCc5ccccn5)cc4c(=O)c3c2)cn1 [MK-8033] + CC(C)C[C@H](NC(=O)[C@H](Cc1ccccc1)NC(=O)c1cnccn1)B(O)O [Bortezomib] (partner 0.002 µM)
Procedure, shortened: (§1)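 Cells from lung cancer lines were seeded into 1536-well plates and, one day later, dosed by pin tool. Treatments were either a single drug or a fixed dose of an anchor drug with five library-drug doses (not always all listed) in √10 steps. After 5 days, nuclei were stained in a one-step fixation (final 0.05% Triton X-100, 1% formaldehyde, 1 ug/ml Hoechst) and counted on 4× images, and relative viability is the treated-to-vehicle nuclei ratio, as the median of duplicate plates.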

Irinotecan + Vorinostat = compound: CCc1c2c(nc3ccc(OC(=O)N4CCC(N5CCCCC5)CC4)cc13)-c1cc3c(c(=O)n1C2)COC(=O)[C@]3(O)CC [Irinotecan] + O=C(CCCCCCC(=O)Nc1ccccc1)NO [Vorinostat] (partner 1 µM)
Procedure, shortened: as §1

Irinotecan + Decitabine = compound: CCc1c2c(nc3ccc(OC(=O)N4CCC(N5CCCCC5)CC4)cc13)-c1cc3c(c(=O)n1C2)COC(=O)[C@]3(O)CC [Irinotecan] + Nc1ncn([C@H]2C[C@H](O)[C@@H](CO)O2)c(=O)n1 [Decitabine] (partner 2 µM)
Procedure, shortened: as §1

RU-SKI 43 + Luminespib = compound: CC[C@@H](C)CNCC(=O)N1CCC2=C([C@@H]1COC3=CC=CC(=C3)C)C=CS2 [RU-SKI 43] + CCNC(=O)c1noc(-c2cc(C(C)C)c(O)cc2O)c1-c1ccc(CN2CCOCC2)cc1 [Luminespib] (partner 0.01 µM)
Procedure, shortened: as §1

Cell Line	relative viability (MK-8033 + Bortezomib; first compound 0.02 µM)	relative viability (MK-8033 + Bortezomib; first compound 0.06325 µM)	relative viability (MK-8033 + Bortezomib; first compound 0.2 µM)	relative viability (MK-8033 + Bortezomib; first compound 0.6325 µM)	relative viability (MK-8033 + Bortezomib; first compound 2 µM)	relative viability (Irinotecan + Vorinostat; first compound 0.6325 µM)	relative viability (Irinotecan + Vorinostat; first compound 2 µM)	relative viability (Irinotecan + Vorinostat; first compound 6.325 µM)	relative viability (Irinotecan + Vorinostat; first compound 20 µM)	relative viability (Irinotecan + Decitabine; first compound 0.6325 µM)	relative viability (Irinotecan + Decitabine; first compound 2 µM)	relative viability (Irinotecan + Decitabine; first compound 6.325 µM)	relative viability (Irinotecan + Decitabine; first compound 20 µM)	relative viability (RU-SKI 43 + Luminespib; first compound 0.1 µM)	relative viability (RU-SKI 43 + Luminespib; first compound 0.3162 µM)	relative viability (RU-SKI 43 + Luminespib; first compound 1 µM)	relative viability (RU-SKI 43 + Luminespib; first compound 3.162 µM)	relative viability (RU-SKI 43 + Luminespib; first compound 10 µM)
NCI-H650	0.858	0.745	0.737	0.794	0.886	0.329	0.303	0.134	0.203	0.246	0.213	0.168	0.091	0.748	0.861	0.901	0.852	0.727
NCI-H661	0.764	0.685	0.647	0.907	0.858	0.688	0.49	0.344	0.252	0.532	0.546	0.424	0.168	0.942	1.03	0.947	0.932	0.898
NCI-H727	0.873	0.62	0.882	0.993	0.857	1.03	0.731	0.616	0.641	0.617	0.751	0.527	0.602	0.365	0.393	0.26	0.362	0.664
NCI-H838	0.794	0.721	0.87	0.79	0.706	0.776	0.703	0.378	0.301	0.444	0.47	0.277	0.18	0.237	0.241	0.288	0.237	0.232
NCI-H1355	1.25	1.12	1.14	1.21	1.15	–	0.578	0.36	0.26	–	0.27	0.19	0.242	0.577	0.822	0.869	0.76	0.741
NCI-H1437	0.469	0.444	0.512	0.489	0.419	0.537	0.54	0.407	0.28	0.586	0.536	0.391	0.334	1.07	1.26	1.15	1.1	1.04
NCI-H1650	0.198	0.181	0.197	0.234	0.218	0.518	0.349	0.351	0.162	0.322	0.296	0.276	0.207	0.185	0.191	0.226	0.205	0.206
NCI-H1651	0.988	0.868	0.968	0.999	1.02	0.362	0.533	0.364	0.158	0.264	0.486	0.18	0.137	0.697	0.9	0.915	0.807	0.658
NCI-H1666	0.766	0.722	0.886	0.822	0.806	0.849	0.706	0.788	0.631	0.551	0.62	0.547	0.545	0.941	1.03	1.03	0.942	0.833
